Test results taken from ChEMBL document CHEMBL1201862, “PubChem BioAssay data set” (2004).
Values joined by “and” are separate entries in the source; they are usually repeats but may differ in a detail not shown here. Equal values may be shown once. Active and inactive are the calls of the source.

Experiments:
[1] = Shn3 3'UTR reporter signal decrease – cell-based, Clone20 osteoblasts, firefly luciferase, cherry-pick, set 2, Schnurri-3 inhibitor project, dose response (AID 720490); assay type: functional;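 further: actives lower the luminescence signal as inhibitors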
[2] = non-specific 3'UTR reporter inhibition in Clone20-Shn3RL – cell-based, Renilla luciferase, cherry-picked, counter-screen for Shn3 inhibitor project, dose response (AID 624133); assay type: functional
[3] = reduction of Shn3 3'UTR-driven luciferase in osteoblasts – cell-based, Clone20 osteoblasts, firefly luciferase, cherry-picked, dose response (AID 624132); assay type: functional;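 further: firefly luciferase luminescence from reporter carrying the Shn3 3'UTR in osteoblasts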
[4] = loss of viability in HepG2 cells – cell-based, CellTiter-Glo, cherry-picked, cytotoxicity control for Shn3 inhibitor project, dose response (AID 624134); assay type: functional
[5] = EF1alpha-driven Renilla reporter with control 3'UTR suppression – Clone20-Shn3RL cells, dual-Glo, cherry-pick, set 2, counter-screen for Shn3 3'UTR targeting project, dose response (AID 720724); assay type: functional, cell-based; settings: Dual-Go Shn3RL
[6] = molecular target: Cytochrome P450 2D6 (Homo sapiens, UniProt P10635); assay: qHTS Assay for Inhibitors and Substrates of Cytochrome P450 2D6. [Related pubchem assays: 410 ]; assay type: ADME; settings: read-out: Potency
[7] = molecular target: Cytochrome P450 2C19 (Homo sapiens, UniProt P33261); assay: qHTS Assay for Inhibitors and Substrates of Cytochrome P450 2C19. [Related pubchem assays: 410 ]; assay type: ADME; settings: read-out: Potency
[8] = molecular target: E3 ubiquitin-protein ligase Mdm2 (Homo sapiens, UniProt Q00987); assay: MDM2-luc reporter signal enhancers, multi-concentration potency testing, MDM2 ubiquitin-protein ligase inhibitor program, whole-cell format, luminescence detection, 384-well microplate (AID 1394); assay type: functional;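 further: MDM2 E3 inhibitors raise luminescence so EC50 is for signal enhancement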
[9] = molecular target: Kallikrein-7 (Homo sapiens, UniProt P49862); assay: Fluorescence Intensity-based biochemical primary high throughput dose response assay to identify activators of kallikrein-7 (K7) zymogen.
[10] = molecular target: Genome polyprotein (Hepatitis C virus, UniProt Q2Q167); assay: disruption of hepatitis C core self-association – biochemical, TR-FRET, dose response (AID 2159); design: species or system Hepacivirus hominis;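 further: blocks dimerization of HCV core protein measured by TR-FRET between tagged core106 pairs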
[11] = test system: Streptococcus sp. 'group A'; assay: Streptococcus pyogenes SK(-)GAS viability under kanamycin – luminescence, BacTiterGlo, confirmation, counter-screen for streptokinase expression inhibitor project, dose response (AID 1900); assay type: functional, organism-based
[12] = test system: INS1; assay: INS-1E survival protection against cytokine death – cell-based, luminescence, retest, dose response (AID 449756); assay type: functional; settings: Rattus norvegicus;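 further: cell death triggered by IL-1 beta plus TNF-alpha plus IFN-gamma mixture; protective hits raise ATP signal compared with cytokine alone wells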
[13] = molecular target: COUP transcription factor 2 (Homo sapiens, UniProt P24468); assay: Luminescence-based cell-based high throughput dose response assay to identify inhibitors of COUP-TFII (NR2F2).; assay type: functional;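 further: HEK293 cells transiently cotransfected with COUP-TFII expression vector and reporter; luciferase reporter luminescence driven by COUP-TFII from the pX2-168 reporter plasmid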
[14] = test system: Streptococcus; assay: GAS UMAA2166 growth inhibition – luminescence, BacTiterGlo, counter-screen for streptokinase expression inhibitor project, dose response (AID 1915); assay type: functional, organism-based;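 further: potency for reduction of bacterial viability or growth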
[15] = molecular target: T1, Oxysterols receptor LXR-beta (Homo sapiens, UniProt P55055); assay type: functional, cell-based
T1 sequence (P55055 whole entry): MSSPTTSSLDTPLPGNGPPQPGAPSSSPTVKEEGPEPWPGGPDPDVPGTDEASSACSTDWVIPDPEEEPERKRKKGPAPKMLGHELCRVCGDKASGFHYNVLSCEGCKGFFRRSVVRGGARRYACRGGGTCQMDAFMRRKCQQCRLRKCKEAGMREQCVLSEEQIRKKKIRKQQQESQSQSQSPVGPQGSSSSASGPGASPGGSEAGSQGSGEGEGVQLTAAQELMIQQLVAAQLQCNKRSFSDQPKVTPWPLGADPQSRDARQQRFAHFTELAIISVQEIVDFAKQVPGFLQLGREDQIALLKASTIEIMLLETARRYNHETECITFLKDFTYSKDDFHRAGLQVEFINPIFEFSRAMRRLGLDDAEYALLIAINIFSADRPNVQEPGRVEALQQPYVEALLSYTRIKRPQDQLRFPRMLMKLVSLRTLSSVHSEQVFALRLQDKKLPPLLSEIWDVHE

[16] = molecular target: T2, Long-chain-fatty-acid--AMP ligase FadD28 (Mycobacterium tuberculosis, UniProt P9WQ59); assay: Fluorescence polarization aasay to screen for inhibitors that compete for the binding of FadD28 to a bisubstrate Measured in Biochemical System Using Plate Reader - 2147-01_Inhibitor_Dose_CherryPick_Activity.; assay type: functional, Mycobacterium tuberculosis H37Rv
T2 sequence (P9WQ59 whole entry): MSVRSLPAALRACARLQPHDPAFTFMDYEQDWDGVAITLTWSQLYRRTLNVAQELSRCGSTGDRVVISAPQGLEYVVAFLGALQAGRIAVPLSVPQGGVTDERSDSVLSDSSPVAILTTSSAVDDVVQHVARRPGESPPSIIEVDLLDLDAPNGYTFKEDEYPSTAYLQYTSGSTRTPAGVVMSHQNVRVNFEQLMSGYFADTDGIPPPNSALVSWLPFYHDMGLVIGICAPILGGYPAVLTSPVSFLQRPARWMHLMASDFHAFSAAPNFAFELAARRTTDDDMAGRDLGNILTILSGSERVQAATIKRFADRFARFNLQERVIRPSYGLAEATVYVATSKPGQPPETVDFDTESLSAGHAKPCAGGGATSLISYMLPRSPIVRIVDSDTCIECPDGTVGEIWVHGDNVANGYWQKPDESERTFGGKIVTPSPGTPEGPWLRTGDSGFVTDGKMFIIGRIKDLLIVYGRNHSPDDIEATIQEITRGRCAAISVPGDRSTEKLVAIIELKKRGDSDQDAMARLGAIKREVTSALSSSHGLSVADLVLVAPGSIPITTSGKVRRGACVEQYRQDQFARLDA

[17] = molecular target: Bifunctional protein GlmU (Mycobacterium tuberculosis, UniProt P9WMN3); assay: Inhibitors of Mycobacterial Glucosamine-1-phosphate acetyl transferase (GlmU). Secondary screen.; design: species or system Mycobacterium tuberculosis H37Rv
[18] = potency of ADAM10 substrate cleavage blockers – biochemical, QFRET, dose response (AID 743254);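 further: ADAM10 enzyme with the DM2 quenched FRET peptide as substrate; EDANS fluorescence gain as the protease cuts the substrate; inhibitor potency against ADAM10 proteolytic activity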
[19] = molecular target: Disintegrin and metalloproteinase domain-containing protein 17 (Homo sapiens, UniProt P78536); assay: inhibition of ADAM17 substrate cleavage – biochemical, quenched FRET substrate, counter-screen for ADAM10 exosite inhibitor project, dose response (AID 743253)
[20] = Luminescence Cell-Based Dose Confirmation HTS to Identify Inhibitors of Platelet Dense Granule Release. [Related pubchem assays: 1663 (Primary HTS), 1678 (Summary of Project)]; assay type: functional
[21] = molecular target: Protein Tat (Human immunodeficiency virus type 1 group M subtype B (isolate HXB2)(HIV-1), UniProt P04608); assay type: functional;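 further: tat binding to TAR RNA read out by fluorescence polarization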
[22] = molecular target: Luciferin 4-monooxygenase (Photinus pyralis, UniProt P08659); assay: inhibition of purified Photinus pyralis luciferase – biochemical, luminescence, dose response (AID 1891)
[23] = molecular target: T1, Oxysterols receptor LXR-beta; assay type: functional, cell-based; remark: listed apart in the source
[24] = cells
[25] = molecular target: Paired box protein Pax-8 (Homo sapiens, UniProt Q06710); assay: PAX8 transcriptional activity inhibition in RMG-I – RMG-I cells, luciferase, cherry-pick, dose response (AID 687027); assay type: functional, cell-based;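 further: luciferase reporter driven by Pax8 target thyroperoxidase promoter measured by SteadyGlo luminescence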
[26] = OVCAR-3 cell viability loss – plate reader, dry powder samples, PAX8 inhibitor project, dose response (AID 743044); assay type: functional, cell-based
[27] = IGROV1 cell killing – plate reader, dry powder samples, PAX8 inhibitor project, dose response (AID 743043); assay type: functional, cell-based; settings: IGROV-1
[28] = rise of 2N DNA cells, HeLa – IC50, dose response (AID 1117349); assay type: functional, cell-based
[29] = cytotoxicity toward Colo320 cells – cell-based, CellTiter-Glo luminescence, IC50, dose response (AID 1117334); assay type: functional; settings: COLO 320
[30] = cytotoxicity toward HCT116 cells – cell-based, CellTiter-Glo luminescence, IC50, dose response (AID 1117332); assay type: functional; settings: HCT-116
[31] = RKO cell viability reduction, dose response, CellTiter-Glo luminescence (AID 1117322); assay type: functional
[32] = CellTiter-Glo luminescence survival assay, SW480 colon tumor line, concentration-response curve, half-maximal inhibitory concentration (AID 1117338); assay type: functional
[33] = Reduced DLD-1 viability, concentration-response, CellTiter-Glo luminescence (AID 1117352); assay type: functional
[34] = HCT116 cell viability decrease, GSK3B pretreatment – CellTiter-Glo, IC50, dose response (AID 1117339); assay type: functional; settings: HCT-116
[35] = rise of 4N DNA cells, HeLa – IC50, dose response (AID 1117351); assay type: functional, cell-based
[36] = cytotoxicity toward HT-29 cells – cell-based, CellTiter-Glo luminescence, IC50, dose response (AID 1117330); assay type: functional
[37] = molecular target: G-protein coupled receptor 183 (Homo sapiens, UniProt P32249); assay: SAR confirmation of small molecule antagonists of the EBI2 receptor via a luminescent beta-arrestin assa.; assay type: functional
[38] = Dd2 parasite growth inhibition in erythrocytes – SYBR Green, dry powder samples, set 9, dose response (AID 1159568); assay type: functional, cell-based

Chain of Cytochrome P450 2C19 (P33261 whole entry): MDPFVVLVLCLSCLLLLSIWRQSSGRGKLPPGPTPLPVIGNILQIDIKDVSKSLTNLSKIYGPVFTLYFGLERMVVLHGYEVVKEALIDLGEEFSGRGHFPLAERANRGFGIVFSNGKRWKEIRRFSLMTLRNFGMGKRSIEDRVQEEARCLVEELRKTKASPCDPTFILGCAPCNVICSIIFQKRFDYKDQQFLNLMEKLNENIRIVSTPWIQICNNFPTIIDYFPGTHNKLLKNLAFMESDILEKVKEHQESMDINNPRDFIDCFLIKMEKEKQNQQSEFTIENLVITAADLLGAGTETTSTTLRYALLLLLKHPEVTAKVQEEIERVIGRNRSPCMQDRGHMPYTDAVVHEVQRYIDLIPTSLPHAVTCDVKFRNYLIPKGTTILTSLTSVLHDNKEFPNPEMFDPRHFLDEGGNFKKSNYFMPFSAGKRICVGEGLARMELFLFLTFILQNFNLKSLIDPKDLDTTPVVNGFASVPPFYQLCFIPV
Chain of G-protein coupled receptor 183 (P32249 whole entry): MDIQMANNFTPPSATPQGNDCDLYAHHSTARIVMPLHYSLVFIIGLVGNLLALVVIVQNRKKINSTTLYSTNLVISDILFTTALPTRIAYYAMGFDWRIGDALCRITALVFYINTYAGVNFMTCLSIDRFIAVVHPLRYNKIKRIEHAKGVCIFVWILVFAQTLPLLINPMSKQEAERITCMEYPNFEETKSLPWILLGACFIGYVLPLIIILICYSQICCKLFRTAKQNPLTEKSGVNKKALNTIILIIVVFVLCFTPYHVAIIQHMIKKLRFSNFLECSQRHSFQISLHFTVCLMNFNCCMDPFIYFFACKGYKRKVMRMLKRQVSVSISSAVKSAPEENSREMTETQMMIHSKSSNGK
Chain of Cytochrome P450 2D6 (P10635 whole entry): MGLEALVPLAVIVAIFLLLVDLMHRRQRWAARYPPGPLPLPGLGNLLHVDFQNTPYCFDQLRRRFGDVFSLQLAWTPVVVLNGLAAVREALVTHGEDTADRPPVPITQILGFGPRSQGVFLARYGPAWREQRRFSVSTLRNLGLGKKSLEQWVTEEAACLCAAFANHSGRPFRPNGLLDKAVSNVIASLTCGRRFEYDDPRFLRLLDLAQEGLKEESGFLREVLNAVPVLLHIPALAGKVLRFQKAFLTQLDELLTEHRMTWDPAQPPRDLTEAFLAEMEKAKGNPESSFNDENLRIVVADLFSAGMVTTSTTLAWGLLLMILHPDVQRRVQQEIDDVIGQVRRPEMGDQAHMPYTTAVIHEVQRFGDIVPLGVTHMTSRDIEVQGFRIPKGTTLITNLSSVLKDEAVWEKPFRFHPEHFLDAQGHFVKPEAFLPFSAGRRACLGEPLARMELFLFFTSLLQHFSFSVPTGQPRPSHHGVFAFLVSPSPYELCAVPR
Chain of Kallikrein-7 (P49862 whole entry): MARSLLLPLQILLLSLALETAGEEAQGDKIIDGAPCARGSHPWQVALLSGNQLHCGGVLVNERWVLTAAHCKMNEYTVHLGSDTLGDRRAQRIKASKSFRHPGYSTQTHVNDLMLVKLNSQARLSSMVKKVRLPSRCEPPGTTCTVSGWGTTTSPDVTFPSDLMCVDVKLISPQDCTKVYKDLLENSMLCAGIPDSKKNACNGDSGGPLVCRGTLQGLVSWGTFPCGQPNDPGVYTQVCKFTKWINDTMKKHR
Chain of Disintegrin and metalloproteinase domain-containing protein 17 (P78536 whole entry, the tested form may be a part): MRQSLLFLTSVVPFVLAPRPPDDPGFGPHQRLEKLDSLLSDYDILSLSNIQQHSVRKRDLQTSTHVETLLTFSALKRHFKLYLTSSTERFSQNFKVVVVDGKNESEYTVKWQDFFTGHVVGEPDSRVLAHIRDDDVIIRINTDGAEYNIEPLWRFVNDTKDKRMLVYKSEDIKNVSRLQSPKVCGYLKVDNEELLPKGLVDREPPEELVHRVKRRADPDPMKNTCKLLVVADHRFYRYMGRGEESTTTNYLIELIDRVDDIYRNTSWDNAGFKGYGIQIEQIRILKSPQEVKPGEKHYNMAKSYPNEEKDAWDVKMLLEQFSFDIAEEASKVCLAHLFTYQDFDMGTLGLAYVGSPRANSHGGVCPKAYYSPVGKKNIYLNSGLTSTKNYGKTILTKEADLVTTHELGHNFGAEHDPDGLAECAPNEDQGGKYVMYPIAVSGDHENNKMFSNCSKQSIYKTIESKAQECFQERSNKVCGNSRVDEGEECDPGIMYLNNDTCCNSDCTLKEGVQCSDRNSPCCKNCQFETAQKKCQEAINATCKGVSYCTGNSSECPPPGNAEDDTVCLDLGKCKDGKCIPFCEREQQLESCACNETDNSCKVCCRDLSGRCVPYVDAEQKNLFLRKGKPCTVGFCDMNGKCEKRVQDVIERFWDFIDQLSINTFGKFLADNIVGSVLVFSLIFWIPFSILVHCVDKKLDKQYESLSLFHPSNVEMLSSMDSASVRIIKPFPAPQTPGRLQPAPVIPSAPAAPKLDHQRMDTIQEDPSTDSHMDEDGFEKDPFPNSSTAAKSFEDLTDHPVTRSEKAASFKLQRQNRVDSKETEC
Chain of COUP transcription factor 2 (P24468 whole entry): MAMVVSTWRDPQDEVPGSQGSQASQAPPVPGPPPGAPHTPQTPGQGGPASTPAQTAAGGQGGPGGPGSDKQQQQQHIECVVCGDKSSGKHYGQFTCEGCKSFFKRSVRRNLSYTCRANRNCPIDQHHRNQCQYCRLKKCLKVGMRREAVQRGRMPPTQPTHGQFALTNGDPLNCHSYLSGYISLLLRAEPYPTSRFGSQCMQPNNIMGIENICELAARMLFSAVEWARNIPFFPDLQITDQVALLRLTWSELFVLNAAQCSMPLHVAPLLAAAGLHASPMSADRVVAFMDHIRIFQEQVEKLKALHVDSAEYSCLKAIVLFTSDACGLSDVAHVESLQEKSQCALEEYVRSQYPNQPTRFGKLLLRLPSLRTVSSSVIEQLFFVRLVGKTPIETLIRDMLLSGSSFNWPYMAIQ
Chain of Protein Tat (P04608 whole entry): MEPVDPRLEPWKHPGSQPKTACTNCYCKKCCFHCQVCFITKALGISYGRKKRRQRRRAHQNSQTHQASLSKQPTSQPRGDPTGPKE
Chain of Luciferin 4-monooxygenase (P08659 whole entry): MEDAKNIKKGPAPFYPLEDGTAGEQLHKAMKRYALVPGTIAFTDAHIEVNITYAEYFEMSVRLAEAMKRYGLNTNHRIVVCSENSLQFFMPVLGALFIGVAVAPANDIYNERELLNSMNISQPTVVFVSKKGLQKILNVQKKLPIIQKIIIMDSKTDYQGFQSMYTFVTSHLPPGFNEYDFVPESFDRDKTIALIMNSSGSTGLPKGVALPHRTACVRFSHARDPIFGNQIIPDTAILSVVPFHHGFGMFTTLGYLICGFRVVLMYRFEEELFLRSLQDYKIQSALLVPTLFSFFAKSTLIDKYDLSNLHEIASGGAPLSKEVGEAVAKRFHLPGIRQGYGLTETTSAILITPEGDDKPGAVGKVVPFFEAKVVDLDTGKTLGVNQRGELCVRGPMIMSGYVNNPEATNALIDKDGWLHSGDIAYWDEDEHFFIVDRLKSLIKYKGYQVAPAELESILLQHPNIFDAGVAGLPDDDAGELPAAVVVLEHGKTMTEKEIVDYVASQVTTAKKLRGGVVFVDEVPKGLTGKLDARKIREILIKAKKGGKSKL
Chain of Bifunctional protein GlmU (P9WMN3 whole entry): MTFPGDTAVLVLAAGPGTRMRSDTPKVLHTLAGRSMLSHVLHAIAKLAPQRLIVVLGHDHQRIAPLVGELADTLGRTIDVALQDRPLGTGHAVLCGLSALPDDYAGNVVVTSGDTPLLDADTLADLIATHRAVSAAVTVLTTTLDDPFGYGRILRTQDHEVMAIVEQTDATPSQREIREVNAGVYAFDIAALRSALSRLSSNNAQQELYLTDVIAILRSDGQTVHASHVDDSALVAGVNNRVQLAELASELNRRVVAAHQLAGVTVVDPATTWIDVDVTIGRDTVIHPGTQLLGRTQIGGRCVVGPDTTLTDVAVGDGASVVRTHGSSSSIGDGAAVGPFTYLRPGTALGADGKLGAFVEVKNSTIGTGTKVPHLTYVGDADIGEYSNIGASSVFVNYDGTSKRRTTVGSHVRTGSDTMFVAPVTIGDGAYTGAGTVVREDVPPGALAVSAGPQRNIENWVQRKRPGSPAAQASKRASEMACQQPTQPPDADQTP
Chain of Genome polyprotein (Q2Q167 whole entry): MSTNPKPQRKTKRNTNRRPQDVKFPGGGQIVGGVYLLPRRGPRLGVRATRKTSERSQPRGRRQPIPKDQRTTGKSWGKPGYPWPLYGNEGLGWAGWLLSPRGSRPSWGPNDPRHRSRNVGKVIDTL
Chain of E3 ubiquitin-protein ligase Mdm2 (Q00987 whole entry): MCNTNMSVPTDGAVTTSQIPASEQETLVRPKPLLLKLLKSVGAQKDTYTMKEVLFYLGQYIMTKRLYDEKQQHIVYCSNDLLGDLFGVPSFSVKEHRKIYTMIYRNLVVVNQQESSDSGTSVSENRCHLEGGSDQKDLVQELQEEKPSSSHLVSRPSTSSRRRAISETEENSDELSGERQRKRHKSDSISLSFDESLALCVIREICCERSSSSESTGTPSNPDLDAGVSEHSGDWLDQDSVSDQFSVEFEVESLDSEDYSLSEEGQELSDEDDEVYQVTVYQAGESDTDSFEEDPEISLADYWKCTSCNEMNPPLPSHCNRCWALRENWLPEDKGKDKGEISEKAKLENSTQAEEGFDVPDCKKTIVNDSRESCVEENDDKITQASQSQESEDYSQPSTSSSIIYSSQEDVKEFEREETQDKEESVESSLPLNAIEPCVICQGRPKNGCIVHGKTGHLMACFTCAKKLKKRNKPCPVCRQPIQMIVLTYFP

CC(C)c1nc(SCC(=O)Nc2cccc(C(F)(F)F)c2)c2c(=O)n(C)c(=O)n(C)c2n1
AC50 [1]: 2.54 µM (active)
AC50 [2]: 13.2 µM (active)
AC50 [3]: 2.7 µM (active)
AC50 [4]: > 70 µM (inactive)
AC50 [5]: 3.53 µM (active)

CCCCC1CN2C(CCC(C)C2c2ccc(Br)cc2)C(=O)O1 (stereo unspecified)
AC50 ([6]; human): 3.16 µM (inconclusive)
AC50 [6]: 3.16 µM (inconclusive)
AC50 [7]: 3.16 µM (inconclusive) and 7.94 µM (inconclusive)

CCOC(=O)C1C(c2ccccc2)N(C)OC1(O)C(F)(F)F (stereo unspecified)
EC50 [8]: 9.58 µM (not active)

COCCN1Cc2cc(O)n3c(nc4ccccc43)c2C1=N
EC50 [9]: > 69.5 µM (inactive)

CC1C=CCCOC1c1ccccc1 (stereo unspecified)
AC50 [7]: 3.98 µM (inconclusive)

CCOC(=O)c1cnn2c(C(F)(F)F)cc(-c3cn(C)nc3C)nc12
EC50 [9]: 33.2 µM (inactive)

COc1ccc(-n2c(-c3ccc(Br)cc3)nc(=S)c3c2CCCC3)cc1
IC50 [10]: > 49.8 µM (not active)

CCOC(=O)c1cnc(-n2nc(C)cc2C)nc1NC1CCCC1
EC50 [11]: 2.69 µM (active)
AC50 [12]: 2.73 µM (active)
IC50 [13]: 7.91 µM (active)
AC50 [2]: 7.1 µM (active)
AC50 [3]: 4.4 µM (active)
AC50 [4]: 8.6 µM (active)
EC50 [14]: 5.64 µM (active)

Cc1cc2nc(-c3cccnc3SCC(=O)NCc3ccco3)[nH]c2cc1C
EC50 [15]: > 67.6 µM (inactive)

Cc1cc(N)n(-c2ccc(Oc3ccccc3)c(S(=O)(=O)O)c2)n1
AC50 [16]: > 100 µM (inactive)
IC50 [17]: 123 µM (active)

Cc1ccc(S(=O)(=O)N2CCC(=O)N2)cc1
IC50 [18]: > 69.6 µM (inactive)
IC50 [19]: > 69.6 µM (inactive)

Cc1ccc(Nc2ncccc2C(N)=O)cc1[N+](=O)[O-]
EC50 [15]: > 67.6 µM (inactive)

O=C(NC1CCCC1)C(c1ccco1)N(Cc1ccccc1)C(=O)c1csnn1 (stereo unspecified)
EC50 [20]: > 112 µM (not active)
IC50 [21]: > 100 µM (active)
EC50 [22]: > 112 µM (not active)

CSc1ccc(C2NN=C(c3ccccc3)S2)cc1 (stereo unspecified)
EC50 [23]: > 67.6 µM (inactive)
EC50 [24]: > 67.6 µM (inactive)

Cc1ccc(S(=O)(=O)Nc2ccc3c(c2)C(=O)N([C@H](C)CO)C[C@@H](C)[C@@H](CN(C)Cc2ccc(C(F)(F)F)cc2)OCCCC[C@H](C)O3)cc1
AC50 [25]: 4.18 µM (active)
AC50 [26]: 18.1 µM (active)
AC50 [27]: 43.5 µM (active)

COc1cc(NCc2ccc3nc(N)nc(N)c3c2C)cc(OC)c1OC
IC50 [28]: > 10 µM (inactive)
IC50 [29]: 0.386 µM (active)
IC50 [30]: 0.0231 µM (active)
IC50 [31]: 0.00272 µM (active)
IC50 [32]: 0.0591 µM (active)
IC50 [33]: 0.195 µM (active)
IC50 [34]: 0.00392 µM (active)
IC50 [35]: > 10 µM (inactive)
IC50 [36]: 0.0212 µM (active)

O=C(CSc1nnc(-c2cccs2)n1Cc1ccco1)Nc1ccc(Oc2ccccc2)cc1
IC50 [18]: > 69.5 µM (inactive)
IC50 [19]: > 69.5 µM (inactive)

O=[N+]([O-])c1cccc(/N=C/C=C(\O)c2cccs2)c1
EC50 [23]: > 67.5 µM (inactive)
EC50 [24]: > 67.5 µM (inactive)

O=C(/C=C/c1ccc(Cl)c(Cl)c1)N1CCN(Cc2ccc(Cl)cc2)CC1
IC50 [37]: 0.0143 µM (active)

CCc1csc(N2[C@H](CO)[C@H](c3ccccc3)[C@@H]2CNC)n1
AC50 [38]: 7.33 µM (active)

O=C(/C=C/c1cc(Br)ccc1F)N1CCN(S(=O)(=O)c2ccc(Br)cc2)CC1
IC50 [37]: 0.743 µM (active)

C[C@H](CO)N1C[C@H](C)[C@H](CN(C)S(=O)(=O)c2ccc(F)cc2)OCCCC[C@H](C)Oc2ccc(N(C)C)cc2C1=O
AC50 [38]: 5.45 µM (active)
